Laboratory results: patent publication US20230085307A1, “PYRIDAZINONE COMPOUND AND HERBICIDE” (NISSAN CHEMICAL CORPORATION, priority 2019, published 2023)

Columns and labels:
[1] = system: late watergrass; assay: Test Example 2: herbicidal activity, application during weed generation under submerged conditions (Table 17, symbol A); format: in vivo, late watergrass (Echinochloa oryzicola); conditions: AAH 320 g/ha; application during weed generation, submerged conditions
Outline: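 3-wk visual-criteria score after one water-surface dose. Emulsion formulation, water-diluted to set rate; applied at 1–2 leaf stage; alluvial soil, 4 cm standing water; seeds co-sown; greenhouse 25–30° C.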

[2] = system: barnyard grass; assay: Test Example 5: herbicidal effect by foliage application, plastic box (Table 20, symbol H); format: in vivo, barnyard grass (Echinochloa crus-galli); conditions: foliage application, 320 g/ha, 3 weeks after application
Outline: (§1)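 Foliar spray test: emulsion formulation diluted in water to a set application rate, sprayed onto 14-day-old plants raised in diluvial soil at 25° C to 30° C under glass. Both herbicidal effect and crop effect rated visually three weeks later.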

[3] = system: Italian ryegrass; assay: Test Example 4: herbicidal effect by soil treatment (Table 19, symbol K); format: in vivo, Italian ryegrass (Lolium multiflorum); conditions: 320 g/ha
Outline: (§2)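 Step 1: sow seeds in sterilized diluvial soil, cover ~1.5 cm. Step 2: spray diluted emulsion onto soil surface at predetermined rate. Step 3: greenhouse, 25–30° C, three weeks. Step 4: grade effect on each plant by earlier criteria.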

[4] = system: late watergrass; assay: Test Example 1: herbicidal activity, application before weed generation under submerged conditions (Table 16, symbol A); format: in vivo, late watergrass (Echinochloa oryzicola); conditions: 320 g/ha applied herbicide
Outline: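 Submerged Wagner pots (alluvial soil, 4 cm water) sown with weed seeds and planted with 2.5-leaf rice seedlings; emulsifiable concentrate diluted in water applied to water surface on sowing day. Held in greenhouse at 25-30 °C; injury scored 0-5 by herbicidal rate after three weeks.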

[5] = system: Chinese sprangletop; assay: Test Example 3: herbicidal effect by foliage application, Wagner pot (Table 18, symbol D); format: in vivo, chinese sprangletop (Leptochloa chinensis); conditions: 320 g/ha
Outline: (§3)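 Plants were sown in alluvial soil held under 0.1–0.5 cm standing water and grown 14 days in a greenhouse at 25–30 °C. An emulsifiable formulation, water-diluted to the set dose, was then sprayed onto the foliage, and effects were scored three weeks later using previously defined criteria.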

[6] = system: southern crabgrass; assay: Test Example 4: herbicidal effect by soil treatment (Table 19, symbol F); format: in vivo, southern crabgrass (Digitaria ciliaris); conditions: 320 g/ha
Outline: as §2

[7] = system: lambsquarters; assay: Test Example 4: herbicidal effect by soil treatment (Table 19, symbol O); format: in vivo, lambsquarters (Chenopodium album); conditions: 320 g/ha
Outline: as §2

[8] = system: rice flat sedge; assay: Test Example 3: herbicidal effect by foliage application, Wagner pot (Table 18, symbol E); format: in vivo, rice flat sedge (Cyperus iria); conditions: 320 g/ha
Outline: as §3

[9] = system: wild oat; assay: Test Example 5: herbicidal effect by foliage application, plastic box (Table 20, symbol I); format: in vivo, wild oat (Avena fatua); conditions: foliage application, 320 g/ha, 3 weeks after application
Outline: as §1

[10] = system: chickweed; assay: Test Example 4: herbicidal effect by soil treatment (Table 19, symbol P); format: in vivo, common chickweed (Stellaria media); conditions: 320 g/ha
Outline: as §2

[11] = system: windgrass; assay: Test Example 4: herbicidal effect by soil treatment (Table 19, symbol L); format: in vivo, windgrass (Apera spica-venti); conditions: 320 g/ha
Outline: as §2

[12] = system: lambsquarters; assay: Test Example 5: herbicidal effect by foliage application, plastic box (Table 20, symbol O); format: in vivo, lambsquarters (Chenopodium album); conditions: foliage application, 320 g/ha, 3 weeks after application
Outline: as §1

[13] = system: wild oat; assay: Test Example 4: herbicidal effect by soil treatment (Table 19, symbol I); format: in vivo, wild oat (Avena fatua); conditions: 320 g/ha
Outline: as §2

[14] = system: Italian ryegrass; assay: Test Example 5: herbicidal effect by foliage application, plastic box (Table 20, symbol K); format: in vivo, Italian ryegrass (Lolium multiflorum); conditions: foliage application, 320 g/ha, 3 weeks after application
Outline: as §1

Compound | herbicidal effect rating, A: late watergrass [1] | effect on barnyard grass (H) [2] | herbicidal effect rating, K: Italian ryegrass [3] | Herbicidal effect on A: late watergrass (grade 0-5) [4] | herbicidal effect on D (Chinese sprangletop), rating 0-5 [5] | herbicidal effect rating, F: southern crabgrass [6] | herbicidal effect rating, O: lambsquarters [7] | herbicidal effect on E (rice flat sedge), rating 0-5 [8] | effect on wild oat (I) [9] | herbicidal effect rating, P: chickweed [10] | herbicidal effect rating, L: windgrass [11] | effect on lambsquarters (O) [12] | herbicidal effect rating, I: wild oat [13] | effect on Italian ryegrass (K) [14]
CCOc1ccc(-c2sc3ccc(F)cc3c2-c2c(O)c(C)nn(C)c2=O)cc1 [2-030] | 0 (Herbicidal rate of 5% or less (almost no effect)) | 5 (Herbicidal rate of 90% or more (almost completely withered)) | 0 (Herbicidal rate of 5% or less (almost no effect)) | 3 (Herbicidal rate of 40% or more and less than 70%) | 3 (Herbicidal rate of 40% or more and less than 70%) | 0 (Herbicidal rate of 5% or less (almost no effect)) | 5 (Herbicidal rate of 90% or more (almost completely withered)) | 5 (Herbicidal rate of 90% or more (almost completely withered)) | 0 (Herbicidal rate of 5% or less (almost no effect)) | 3 (Herbicidal rate of 40% or more and less than 70%) | 0 (Herbicidal rate of 5% or less (almost no effect)) | 4 (Herbicidal rate of 70% or more and less than 90%) | 0 (Herbicidal rate of 5% or less (almost no effect)) | 3 (Herbicidal rate of 40% or more and less than 70%)
CCCC(=O)Oc1c(C)nn(C)c(=O)c1-c1c(-c2ccc(OCC)cc2)sc2ccc(F)cc12 [2-031] | 4 (Herbicidal rate of 70% or more and less than 90%) | 4 (Herbicidal rate of 70% or more and less than 90%) | 0 (Herbicidal rate of 5% or less (almost no effect)) | 3 (Herbicidal rate of 40% or more and less than 70%) | 4 (Herbicidal rate of 70% or more and less than 90%) | 1 (Herbicidal rate of 5% or more and less than 20%) | 4 (Herbicidal rate of 70% or more and less than 90%) | 4 (Herbicidal rate of 70% or more and less than 90%) | 0 (Herbicidal rate of 5% or less (almost no effect)) | 1 (Herbicidal rate of 5% or more and less than 20%) | 0 (Herbicidal rate of 5% or less (almost no effect)) | 5 (Herbicidal rate of 90% or more (almost completely withered)) | 0 (Herbicidal rate of 5% or less (almost no effect)) | 0 (Herbicidal rate of 5% or less (almost no effect))
CCCOc1ccc(-c2sc3ccc(F)cc3c2-c2c(OC(=O)CCC)c(C)nn(C)c2=O)cc1 [2-033] | 1 (Herbicidal rate of 5% or more and less than 20%) | 5 (Herbicidal rate of 90% or more (almost completely withered)) | 0 (Herbicidal rate of 5% or less (almost no effect)) | 4 (Herbicidal rate of 70% or more and less than 90%) | 1 (Herbicidal rate of 5% or more and less than 20%) | 0 (Herbicidal rate of 5% or less (almost no effect)) | 5 (Herbicidal rate of 90% or more (almost completely withered)) | 5 (Herbicidal rate of 90% or more (almost completely withered)) | 0 (Herbicidal rate of 5% or less (almost no effect)) | 4 (Herbicidal rate of 70% or more and less than 90%) | 0 (Herbicidal rate of 5% or less (almost no effect)) | 5 (Herbicidal rate of 90% or more (almost completely withered)) | 0 (Herbicidal rate of 5% or less (almost no effect)) | 2 (Herbicidal rate of 20% or more and less than 40%)
CCCC(=O)Oc1c(C)nn(C)c(=O)c1-c1c(-c2ccc(OC(C)C)cc2)sc2ccc(F)cc12 [2-035] | 1 (Herbicidal rate of 5% or more and less than 20%) | 5 (Herbicidal rate of 90% or more (almost completely withered)) | 0 (Herbicidal rate of 5% or less (almost no effect)) | 5 (Herbicidal rate of 90% or more (almost completely withered)) | 0 (Herbicidal rate of 5% or less (almost no effect)) | 3 (Herbicidal rate of 40% or more and less than 70%) | 5 (Herbicidal rate of 90% or more (almost completely withered)) | 5 (Herbicidal rate of 90% or more (almost completely withered)) | 0 (Herbicidal rate of 5% or less (almost no effect)) | 3 (Herbicidal rate of 40% or more and less than 70%) | 0 (Herbicidal rate of 5% or less (almost no effect)) | 3 (Herbicidal rate of 40% or more and less than 70%) | 0 (Herbicidal rate of 5% or less (almost no effect)) | 0 (Herbicidal rate of 5% or less (almost no effect))
CCCCOc1ccc(-c2sc3ccc(F)cc3c2-c2c(OC(=O)CCC)c(C)nn(C)c2=O)cc1 [2-037] | 0 (Herbicidal rate of 5% or less (almost no effect)) | 2 (Herbicidal rate of 20% or more and less than 40%) | 0 (Herbicidal rate of 5% or less (almost no effect)) | 3 (Herbicidal rate of 40% or more and less than 70%) | 2 (Herbicidal rate of 20% or more and less than 40%) | 2 (Herbicidal rate of 20% or more and less than 40%) | 2 (Herbicidal rate of 20% or more and less than 40%) | 4 (Herbicidal rate of 70% or more and less than 90%) | 0 (Herbicidal rate of 5% or less (almost no effect)) | 1 (Herbicidal rate of 5% or more and less than 20%) | 0 (Herbicidal rate of 5% or less (almost no effect)) | 4 (Herbicidal rate of 70% or more and less than 90%) | 0 (Herbicidal rate of 5% or less (almost no effect)) | 0 (Herbicidal rate of 5% or less (almost no effect))
CCCCCOc1ccc(-c2sc3ccc(F)cc3c2-c2c(OC(=O)CCC)c(C)nn(C)c2=O)cc1 [2-038] | 2 (Herbicidal rate of 20% or more and less than 40%) | 0 (Herbicidal rate of 5% or less (almost no effect)) | 0 (Herbicidal rate of 5% or less (almost no effect)) | 3 (Herbicidal rate of 40% or more and less than 70%) | 4 (Herbicidal rate of 70% or more and less than 90%) | 0 (Herbicidal rate of 5% or less (almost no effect)) | 1 (Herbicidal rate of 5% or more and less than 20%) | 4 (Herbicidal rate of 70% or more and less than 90%) | 0 (Herbicidal rate of 5% or less (almost no effect)) | 1 (Herbicidal rate of 5% or more and less than 20%) | 0 (Herbicidal rate of 5% or less (almost no effect)) | 3 (Herbicidal rate of 40% or more and less than 70%) | 0 (Herbicidal rate of 5% or less (almost no effect)) | 0 (Herbicidal rate of 5% or less (almost no effect))
